Measurements published in US20240190889A1, “NEW CYCLOPENTA-THIENO-DIAZEPINE DERIVATIVES AS GABA A GAMMA1 POSITIVE ALLOSTERIC MODULATORS” (Hoffmann-La Roche Inc., priority 2021, published 2024).
pKi: −log10 of the molar value.

Columns and labels:
[1] = molecular target: h-GABA-A α2β2γ1 receptor expressed in Xenopus laevis oocytes (Homo sapiens (Human), UniProt P47869+Q8N1C3); experiment: Two-electrode voltage clamp electrophysiology in Xenopus oocytes expressing GABAA receptors; type: cell-based; conditions: for Efficacy (GABA)%: % modulation of GABA EC20 = 100*(Fold increase-1), compound at 30-fold Ki α2β2γ1; for Fold increase h-GABA-A α2β2γ1 oocyte @ 30-fold Ki: GABA EC20, test compound at approx. 30-fold its Ki α2β2γ1, at least 3 oocytes
From the text: Functional Expression of GABAA Receptors:
Xenopus Oocytes Preparation
Xenopus laevis oocytes at maturation stages V-VI were used for the expression of cloned mRNA encoding GABAA receptor subunits. Oocytes ready for RNA micro-injection were bought from Ecocyte, Castrop-Rauxel, Germany and stored in modified Barth's medium (composition in mM: NaCl 88, KCl 1, NaHCO3 2.4, HEPES 10, MgSO4 0.82, CaNO3 0.33, CaCl2 0.33, pH=7.5) at 20 C. until the experiment.
Xenopus Oocytes Microinjection
Oocytes were plated in 96-well plates for microinjection using the Roboinject automated instrument (MultiChannelSystems, Reutlingen, Germany). Approximately 50 nL of an aqueous solution containing the RNA transcripts for the subunits of the desired GABAA receptor subtype was injected into each oocyte. […] Oocytes were kept in modified Barth's medium (composition in mM: NaCl 88, KCl 1, NaHCO3 […], HEPES 10, MgSO4 0.82, CaNO3 0.33, CaCl2 0.33, pH=7.5) at 20° C. until the experiment.
Electrophysiological experiments were performed using the Roboocyte instrument (MultiChannelSystems, Reutlingen, Germany) on days 3 to 5 after the micro-injection of mRNA. During the experiment the oocytes were constantly superfused by a solution containing (in mM) NaCl 90, KCl 1, HEPES 5, MgCl: 1, CaCl, 1 (pH 7.4). Oocytes were impaled by two glass microelectrodes (resistance: 0.5-0.8 MS2) which were filled with a solution containing KCl 1M +K-acetate 1.5 M and voltage-clamped to −80 mV. The recordings were performed at room temperature using the Roboocyte two-electrode voltage clamp system (Multichannelsystem). After an initial equilibration period of 1.5 min GABA was added for 1.5 min at a concentration evoking approximately 20% of a maximal current response (EC20). After another rest interval of 2.5 min GABA was again added evoking a response of similar amplitude and shape. […] Current traces were recorded at a digitization rate of 10 Hz during and shortly before and after the GABA application.
Each compound and concentration was tested on at least 3 oocytes. Different oocytes were used for different compound concentrations.
For the analysis, the digitized current traces of the first and second GABA response were superimposed and, if necessary, rescaled to equal maximal amplitudes. The ratio between the two responses during the time interval of test compound application was calculated point by point. The extremum of the resulting “ratio trace” was taken as the efficacy (“Fold increase”) of the compound expressed as “% modulation of GABA EC” (100* (Fold increase-1)).

[2] = molecular target: human GABAA α5β2γ1 receptor (Homo sapiens (Human), UniProt P31644+Q8N1C3); experiment: Radioligand binding assay, competition for [3H]RO7239181, γ1-containing GABAA subtypes; conditions: membranes from HEK293F cells, mean of two determinations
Experimental: Membrane Preparation and Binding Assay for γ1-containing GABAA Subtypes
The affinity of compounds at GABAA γ1 subunit-containing receptors was measured by competition for [^3H]RO7239181 (67.3 Ci/mmol: Roche) binding to membranes from HEK293F cells (ThermoFisher R79007) expressing human (transiently transfected) receptors of composition α5β2γ1, α2β2γ1, α1β2γ1. For better protein expression of the α2 subunit-containing receptors, the 28 amino acid long signal peptide (Metl to Ala28) of the human GABAA α2 subunit was substituted by the 31 amino acid long signal peptide (Met1 to Ser31) of human GABAA α5 subunit.
Harvested pellets from HEK293F cells expressing the different GABAA receptor subtypes were resuspended in Mannitol Buffer pH 7.2-7.4 (Mannitol 0.29 M, Tricthylamine 10 mM. Acetic acid 10 mM. EDTA 1 mM plus protease inhibitors (20 tablets Complete. Roche Diagnostics Cat. No. 05 056 489 001 per liter)), washed two times and then resuspended at 1:10 to 1:15 dilution in the same buffer. Cell disruption was performed by stirring the suspension in a Parr vessel #4637 at 435 psi for 15 minutes, and then the suspensions were centrifuged at 1000×g for 15 minutes at 4° C. (Beckman Avanti J-HC: rotor JS-4.2). The supernatant (S1) was transferred in a 21 Schott flask and the pellet (P1) was resuspended with Mannitol Buffer up to 175 ml. The resuspended pellet was transferred into a 250 ml Corning centrifugal beaker and centrifuged at 1500 ×g for 10 minutes at 4° C. (Beckman Avanti J-HC: rotor JS-4.2). The supernatant (S1) was then transferred in the 21 Schott flask and the pellet was discarded. The supernatants (S1) were centrifuged in 500ml Beckman polypropylene centrifugal beaker at 15 000×g for 30 minutes at 4° C. (Beckman Avanti J-20 XP; rotor JLA-10.500). The pellet (P2) was resuspended with Mannitol Buffer 1:1 and frozen at −80° C. The supernatant (S2) was centrifuged in 100 ml Beckman polypropylene centrifugal tubes at 48000×g for 50 minutes at 4 °C (Beckman Avanti J-20 XP: rotor JA-18). The supernatant (S3) was discarded and the pellet (P3) was resuspended with 1:1 Mannitol Buffer. The P2 and P3 protein concentration was determined with the BIORAD Standard assay method with bovine serum albumin as standard and measured on the NANO-Drop 1000. The membrane suspension was aliquots (500μl per tube) and stored at −80° C. until required.
Membrane homogenates were resuspended and polytronised (Polytron PT1200E Kinematica AG) in Potassium Phosphate 10 mM, KCl 100 mM binding buffer at pH 7.4 to a final assay concentration determined with a previous experiment.
Radioligand binding assays were carried out in a volume of 200 μL (96-well plates) which contained 100 μL of cell membranes. [^3H]RO7239181 at a concentration of 1.5 nM (α5β2γ1) or 20-30 nM (α1β2γ1, α2β2γ1) and the test compound in the range of [0.3-10000]33 10^−9 M. Nonspecific binding was defined by […] (α5β2γ1) and […] RO7239181 and typically represented less than 5% (α5β2γ1) and less than 20% (α1β2γ1, α2β2γ1) of the total binding. Assays were incubated to equilibrium for 1 hour at 4° C. and then, membranes were filtered onto unifilter (96-well white microplate with bonded GF/C filters preincubated 20-50 minutes in 0.3% Polyethylenimine) with a Filtermate 196 harvester (Packard BioScience) and washed 4 times with cold Potassium Phosphate 10 mM pH 7.4. KCl 100 mM binding buffer. After anhydrousing, filter-retained radioactivity was detected by liquid scintillation counting. Ki values were calculated using Excel-Fit (Microsoft) and are the means of two determinations.
Representative test results, obtained by the above described assay measuring binding affinity to HEK293 cells expressing human (h) receptors, are shown in the Table 1.

## Cc1nnc2n1-c1sc3c(c1C(c1c(F)cccc1F)=NC2)C[C@@H](C)C3 [Example 14, (13R)-9-(2,6-difluorophenyl)-3,13-dimethyl-16-thia-2,4,5,8-tetrazatetracyclo [8.6.0.02,6.011,15]hexadeca-1(10),3,5,8,11(15)-pentaene]
[1]
  Efficacy (GABA)%: 68%
  Fold increase h-GABA-A α2β2γ1 oocyte @ 30-fold Ki: 1.68
[2]
  pKi: 8.80

## C[C@@H]1N=C(c2c(F)cccc2Cl)c2c(sc3c2C[C@@H](C(F)F)C3)-n2c(C3CC3)nnc21 [Example 11, (7S,13R)-9-(2-chloro-6-fluoro-phenyl)-3-cyclopropyl-13-(difluoromethyl)-7-methyl-16-thia-2,4,5,8-tetrazatetracyclo [8.6.0.02,6.011,15]hexadeca-1(10),3,5,8,11(15)-pentaene]
[1]
  Efficacy (GABA)%: 44%
  Fold increase h-GABA-A α2β2γ1 oocyte @ 30-fold Ki: 1.44
[2]
  pKi: 8.47

## Cc1nnc2n1-c1sc3c(c1C(c1c(F)cccc1F)=N[C@H]2C)C[C@@H](C(F)(F)F)C3 [Example 13, (7S,13R)-9-(2,6-difluorophenyl)-3,7-dimethyl-13-(trifluoromethyl)-16-thia-2,4,5,8-tetrazatetracyclo [8.6.0.02,6.011,15]hexadeca-1(10),3,5,8,11(15)-pentaene]
[1]
  Efficacy (GABA)%: 51%
  Fold increase h-GABA-A α2β2γ1 oocyte @ 30-fold Ki: 1.51
[2]
  pKi: 8.23

## C[C@@H]1N=C(c2c(F)cccc2F)c2c(sc3c2C[C@@H](C(F)F)C3)-n2c(C3CC3)nnc21 [Example 8, (7S,13R)-3-cyclopropyl-13-(difluoromethyl)-9-(2,6-difluorophenyl)-7-methyl-16-thia-2,4,5,8-tetrazatetracyclo [8.6.0.02,6.011,15]hexadeca-1(10),3,5,8,11(15)-pentaene]
[1]
  Efficacy (GABA)%: 37%
  Fold increase h-GABA-A α2β2γ1 oocyte @ 30-fold Ki: 1.37
[2]
  pKi: 8.72

## Fc1cccc(Cl)c1C1=NCc2nnc(C3CC3)n2-c2sc3c(c21)C[C@@H](C(F)F)C3 [Example 6, (13R)-9-(2-chloro-6-fluoro-phenyl)-3-cyclopropyl-13-(difluoromethyl)-16-thia-2,4,5,8-tetrazatetracyclo [8.6.0.02,6.011,15]hexadeca-1(10),3,5,8,11(15)-pentaene]
[1]
  Efficacy (GABA)%: 85%
  Fold increase h-GABA-A α2β2γ1 oocyte @ 30-fold Ki: 1.85
[2]
  pKi: 8.47

## Cc1nc2n(n1)-c1sc3c(c1C(c1c(F)cccc1F)=N[C@H]2C)C[C@H](C(F)F)C3 [Example 17, (7S,13S)-13-(difluoromethyl)-9-(2,6-difluorophenyl)-4,7-dimethyl-16-thia-2,3,5,8-tetrazatetracyclo [8.6.0.02,6.011,15]hexadeca-1(10),3,5,8,11(15)-pentaene]
[1]
  Efficacy (GABA)%: 25%
  Fold increase h-GABA-A α2β2γ1 oocyte @ 30-fold Ki: 1.25
[2]
  pKi: 7.50

## Cc1nnc2n1-c1sc3c(c1C(c1c(F)cccc1Cl)=N[C@H]2C)C[C@@H](C(F)F)C3 [Example 9, (7S,13R)-9-(2-chloro-6-fluoro-phenyl)-13-(difluoromethyl)-3,7-dimethyl-16-thia-2,4,5,8-tetrazatetracyclo [8.6.0.02,6.011,15]hexadeca-1(10),3,5,8,11(15)-pentaene]
[1]
  Efficacy (GABA)%: 38%
  Fold increase h-GABA-A α2β2γ1 oocyte @ 30-fold Ki: 1.38
[2]
  pKi: 8.80

## Cc1nnc2n1-c1sc3c(c1C(c1c(F)cccc1Cl)=NC2)C[C@@H](C#N)C3 [Example 1, (13R)-9-(2-chloro-6-fluoro-phenyl)-3-methyl-16-thia-2,4,5,8-tetrazatetracyclo [8.6.0.02,6.011,15]hexadeca-1(10),3,5,8,11(15)-pentaene-13-carbonitrile]
[1]
  Efficacy (GABA)%: 54%
  Fold increase h-GABA-A α2β2γ1 oocyte @ 30-fold Ki: 1.54
[2]
  pKi: 8.06

## Cc1nnc2n1-c1sc3c(c1C(c1c(F)cccc1F)=NC2)C[C@@H](C(F)F)C3 [Example 3, (13R)-13-(difluoromethyl)-9-(2,6-difluorophenyl)-3-methyl-16-thia-2,4,5,8-tetrazatetracyclo [8.6.0.02,6.011,15]hexadeca-1(10),3,5,8,11(15)-pentaene]
[1]
  Efficacy (GABA)%: 54%
  Fold increase h-GABA-A α2β2γ1 oocyte @ 30-fold Ki: 1.54
[2]
  pKi: 8.74
